The values that follow come from patent publication US20230414472A1, “COSMETIC COMPOSITION INCLUDING GARLIC EXTRACT, BLACK TEA EXTRACT, AND GUAVA EXTRACT” (COSMAX INC., priority 2022, published 2023).

For experiment [1], the target named is T1, SNARE complex (SNAP-25, syntaxin 1a, VAMP-2) (Homo sapiens, UniProt P60880+P63027+Q16623).
T1 construct: GST (inferred from purification on glutathione agarose beads); made in house; host or cells: E. coli
Nature of the experiment: Inhibitory effect on membrane fusion (SNARE liposome fusion, fluorescence intensity). The format is biochemical. The settings on record: 100 μM myricetin; FIG. 1. As for the experimental part:
The inhibitory effect of the composition according to an embodiment on the membrane fusion was confirmed. Also, since myricetin was predicted as an active ingredient, the inhibitory effect of 100 μM of myricetin (Sigma-Aldrich) on the membrane fusion was also confirmed.
First, a soluble nethylmaleimide-sensitive factor attachment protein (SNAP) receptor protein was overexpressed in transformed E. coli, and then the expressed protein was selectively purified and obtained by using glutathione agarose beads. Then, […] (POPC, 62 mol %), 1,2-dioleoyl-sn-glycero-3-phosphatidylserine (DOPS, 35 mol %), 1,2-dioleoyl-sn-glycero-3-phosphoserine-N-(7-nitro-2-1,3-benzoxadiazol-4-yl) (NBD-PS, 1.5 mol %), and a fluorescent material, rhodamine (rhodamin-PE, 1.5 mol %) were mixed to prepare a 10 mM fluorescent substance-labeled liposome (v-vesicle). Meanwhile, DOPS and POPC were mixed to a molar concentration of 35:65 to prepare a 50 mM liposome (t-vesicle) that is not labeled with a fluorescent substance. Then, purified synaptosomal-associated protein, SNAP-25, and syntaxin 1a were mixed at a molar concentration of 1:1 and allowed for a reaction for 1 hour at room temperature, followed by mixing with the liposome that is not labeled with a fluorescent substance at a molar ratio of 100:1. […]
Then, the fluorescence intensity thereof was measured.

The subject of the next experiment is VAMP2. Nature of the experiment: VAMP2 level in human skin explant (fluorescence staining). The format is cell-based. The settings on record: 10 μL sample at set concentrations, cultured 72 hours, FIG. 3.
Experiment [2] relates to acetylcholine release in human skin tissue. Nature of the experiment: Acetylcholine release in human skin explant (choline/acetylcholine assay kit). It counts as cell-based. The settings on record: 10 μL sample every day for 3 days, FIG. 4.

T1 sequence (P60880 whole entry): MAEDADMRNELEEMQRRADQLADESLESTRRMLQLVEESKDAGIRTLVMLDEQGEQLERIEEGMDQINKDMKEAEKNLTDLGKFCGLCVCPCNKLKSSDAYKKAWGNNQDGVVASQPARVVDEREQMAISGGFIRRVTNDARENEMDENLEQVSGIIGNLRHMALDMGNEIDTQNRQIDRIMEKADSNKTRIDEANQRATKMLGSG
T1 sequence (Q16623 whole entry): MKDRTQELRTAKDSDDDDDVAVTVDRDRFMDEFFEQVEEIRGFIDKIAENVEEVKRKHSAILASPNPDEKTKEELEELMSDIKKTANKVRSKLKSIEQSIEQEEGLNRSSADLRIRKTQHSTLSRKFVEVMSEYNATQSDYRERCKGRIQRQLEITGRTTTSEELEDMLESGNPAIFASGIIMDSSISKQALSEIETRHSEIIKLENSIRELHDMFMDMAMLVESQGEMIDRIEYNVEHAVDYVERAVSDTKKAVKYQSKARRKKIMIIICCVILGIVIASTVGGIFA
T1 sequence (P63027 whole entry): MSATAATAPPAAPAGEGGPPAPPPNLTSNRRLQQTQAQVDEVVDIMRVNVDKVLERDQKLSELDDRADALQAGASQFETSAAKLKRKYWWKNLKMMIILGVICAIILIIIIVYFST

Turning to `O=c1c(O)c(-c2cc(O)c(O)c(O)c2)oc2cc(O)cc(O)c12` [myricetin], the membrane fusion rate entry in experiment [1] was “most significantly reduced”. In addition, in the experiment with VAMP2, the “VAMP2 level in the skin tissue” value is reported as “significantly reduced”. The “amount of acetylcholine released in the skin tissue” value in experiment [2] is recorded as “significantly reduced”.
